Publication PMC5007552, “The hVps34‐SGK3 pathway alleviates sustained PI3K/Akt inhibition by stimulating mTORC1 and tumour growth” (The EMBO Journal, 2016)

Target: T1, SGK3[S486E] (Homo sapiens, UniProt Q96BR1, S486E)
T1 construct: host or cells: HEK293
T1 sequence (Q96BR1 1-496 S486E): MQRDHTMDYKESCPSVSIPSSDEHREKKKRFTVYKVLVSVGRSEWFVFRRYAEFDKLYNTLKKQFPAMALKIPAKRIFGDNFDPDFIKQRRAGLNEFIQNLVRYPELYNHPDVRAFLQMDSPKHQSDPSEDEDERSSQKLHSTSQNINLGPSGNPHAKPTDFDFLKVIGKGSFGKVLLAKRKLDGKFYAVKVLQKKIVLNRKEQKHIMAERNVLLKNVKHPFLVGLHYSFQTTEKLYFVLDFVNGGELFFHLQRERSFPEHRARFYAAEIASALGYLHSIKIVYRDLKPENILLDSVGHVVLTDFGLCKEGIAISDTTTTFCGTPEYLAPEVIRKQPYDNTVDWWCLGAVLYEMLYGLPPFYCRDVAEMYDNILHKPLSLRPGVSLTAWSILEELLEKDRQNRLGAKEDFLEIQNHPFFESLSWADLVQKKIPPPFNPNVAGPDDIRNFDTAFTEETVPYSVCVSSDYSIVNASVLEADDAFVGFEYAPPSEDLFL
Assay: SGK3 kinase assay on phospholipid vesicles: phosphorylation of SGK3[S486E] at Thr320 by PDK1 with PtdIns(3)P
Type: biochemical
Conditions: in the presence of PtdIns(3)P
Protocol: Figure 4 PtdIns(3)P binding to PX domain of SGK3 promotes phosphorylation and activation by PDK1 • A, B SGK3 [S486E]‐GST and SGK3 [R90A S486]‐GST were purified from HEK293 cells transiently overexpressing these enzymes. […] SGK3[S486E]‐GST (A) or the non‐PtdIns(3)P‐binding mutant SGK3[R90A, S486E]‐GST (B) was incubated with lipid vesicles comprising phosphatidylcholine (PC) and phosphatidylserine (PS) containing the indicted concentrations of PtdIns or PtdIns(3)P in the presence or absence of added recombinant PDK1 (50 ng) and kinase reactions were initiated by addition of MgATP. After 30 min at 30°C, PDK1 was inhibited by addition of the 1 μM GSK2334470 PDK1 inhibitor and the reaction mixture was supplemented with 2 μg GST‐NDRG1 SGK3 substrate. After another 30 min at 30°C, the reaction was terminated by addition of SDS sample buffer. The reaction mixtures were subjected to immunoblot analysis with the indicated antibodies.
The result for each kinase is presented as a mean kinase activity of the reaction taken in triplicate relative to a control reaction where the inhibitors were omitted. […] SGK3 was immunoprecipitated from cell lysates and subjected to in vitro kinase assay by measuring phosphorylation of the Crosstide substrate peptide in the presence of 0.1 mM [γ‐^32P]ATP in a 30 min 30°C reaction (upper panel). Kinase reactions are presented as means ± SD for triplicate reaction. […]

concentration of near maximal inhibition of PDK1 phosphorylating SGK3[S486E] at Thr320: 0.1 µM
Compound: Nc1n[nH]c2nc(-c3ccc(NS(=O)(=O)c4cc(Cl)ccc4Cl)cc3)cnc12 [14h]
